In patent publication US9789101B2, “Methods and compositions for treating microbial infection using pyrroloquinone” (HELPERBY THERAPEUTICS LIMITED, priority 2010, dated 2017):
Counter-ions that a name gives are not always drawn.

Key:
[1] = system: log phase (i.e. multiplying) bacteria; conditions: J. Am. Pharm. Assoc. 1956; cited from earlier work
[2] = system: Mupirocin Resistant S. aureus (28 Passages); assay: Chequerboard analysis of HT00800059 and mupirocin against mupirocin resistant S. aureus (28 passages); assay type: cell-based, Staphylococcus aureus
Procedure: (§1) Staphylococcus aureus (Oxford); Gram positive; Reference strain.
(§2) Log phase growth of mupirocin resistant Staphylococcus aureus (MSSA) was carried out as follows: • Bacteria were grown in 10 ml of nutrient broth (No. 2, (Oxoid)) overnight at 37° C. with continuous shaking at 120 rpm. The overnight cultures were diluted 1000× with iso-sensitest broth. The cultures were incubated at 37° C. with shaking for 1-2 hours to reach log CFU 6. Viability of the bacteria was estimated by colony forming unit (CFU) counts. From serial 10-fold dilutions of the experimental cultures, 100 μl samples were added to triplicate plates of nutrient agar plates (Oxoid) or blood agar plates (Oxoid). CFUs were counted after incubation of the plates at 37° C. for 24 hours.
(§3) Bacterial cultures: 10 μl of overnight cultures was added to 10 ml of fresh iso-sensitest broth to make the inoculation to 10^6 CFU/ml. 290 μl of the cell suspension was added to each well of the 96 well plate, which was incubated at 37° C. for 24 hours. 300 μl of iso-sensitest broth without bacterial cells were added to wells of the plate as a no bacterial control.
(§4) MIC determination: The optical density of the bacterial cells was read at 405 nm using a plate reader (Bio TEK). The MIC concentration was determined as the lowest concentration of drug which inhibits the bacterial growth.
(§5) Mupirocin was dissolved in DMSO to the stock concentration of 10 mg/ml. HT00800059 was dissolved in H2O to the stock solution 30.07 mg/ml.
(§6) Mupirocin (10 mg/ml) was firstly diluted to 3.84 mg/ml, then further diluted in a serial of 2 fold dilutions. HT00800059 (30.7 mg/ml) was performed in a serial of 2 fold dilutions.
(§7) This was followed by the addition of 280 μl of log phase culture at 10^6 CFU/ml to make the final concentrations of each drug as shown in Table 1 and Table 2.
(§8) In the above table, values in bold text are for HT00800059. Values in plain text are for mupirocin. The numbers shown in each well are μg/ml.
(§9) Incubation of the compounds with the bacterial suspension was carried out for 24 hours. The kill effects of the drug combination were measured by optical density reading at 405 nm with a plate reader (Bio TEK).
(§10) The fractional inhibitory concentration (FIC) index was carried out as following: (MIC of drug A, tested in combination)/(MIC of drug A, tested alone)+(MIC of drug B, tested in combination)/(MIC of drug B, tested alone). The interaction was defined as synergistic if the FIC index was <1, additive if the FIC index was =1 and antagonistic if the FIC index was >1.

[3] = system: log phase Staphylococcus aureus; assay: Chequerboard analysis of HT00800059 and mupirocin against log phase Staphylococcus aureus; assay type: cell-based, Staphylococcus aureus (Oxford); conditions: for optical density reading at 405 nm: 24 hours
Procedure: Staphylococcus aureus (Oxford); Gram positive; Reference strain. Log phase growth of […] sensitive Staphylococcus aureus (MSSA) was carried out as follows: • Bacteria were grown in 10 ml of nutrient broth (No. 2, (Oxoid)) overnight at 37° C. with continuous shaking at 120 rpm. […] The cultures were incubated at 37° C. with shaking for 1-2 hours to reach log CFU 6. Viability of the bacteria was estimated by colony forming unit (CFU) counts. From serial 10-fold dilutions of the experimental cultures, 100 μl samples were added to triplicate plates of nutrient agar plates (Oxoid) or blood agar plates (Oxoid). CFUs were counted after incubation of the plates at 37° C. for 24 hours. […] 290 μl of the cell suspension was added to each well of the 96 well plate, which was incubated at 37° C. for 24 hours. […] MIC determination: The optical density of the bacterial cells was read at 405 nm using a plate reader (Bio TEK). The MIC concentration was determined as the lowest concentration of drug which inhibits the bacterial growth. […] HT00800059 was dissolved in H2O to the stock solution 30.07 mg/ml. […] HT00800059 (30.7 mg/ml) was performed in a serial of 2 fold dilutions. This was followed by the addition of 280 μl of log phase culture at 10^6 CFU/ml to make the final concentrations of each drug as shown. In the above table, values in bold text are for HT00800059. Values in plain text are for mupirocin. The numbers shown in each well are μg/ml. Incubation of the compounds with the bacterial suspension was carried out for 24 hours. The kill effects of the drug combination were measured by optical density reading at 405 nm with a plate reader (Bio TEK). The fractional inhibitory concentration (FIC) index was carried out as following: (MIC of drug A, tested in combination)/(MIC of drug A, tested alone)+(MIC of drug B, tested in combination)/(MIC of drug B, tested alone). The interaction was defined as synergistic if the FIC index was <1, additive if the FIC index was =1 and antagonistic if the FIC index was >1.

[4] = system: Mupirocin Resistant S. aureus (24 Passages); assay: Chequerboard analysis of HT00800059 and mupirocin against mupirocin resistant S. aureus (24 passages); assay type: cell-based, Staphylococcus aureus
Procedure: as §1, §2, §3, §4, §5, §6, §7, §8, §9, §10

[5] = Staphylococcus aureus, read-out: alone MIC

CCCCOc1ccc(C(=O)CCN2CCCCC2)cc1 [HT00800059, dyclonine (1-(4-Butoxyphenyl)-3-(1-piperidinyl)-1-propanone) hydrochloride]
activity in vitro against a variety of log phase bacteria [1]: activity | MIC [2, 5]: 512 µg/mL | MIC before combination ([2]; resistant strain 28 passages): 512 µg/mL | MIC post combination ([2]; resistant strain 28 passages): 64 µg/mL | HT00800059 MIC in combination ([2]; with mupirocin 32 μg/ml, 28 passages): 64 µg/mL | MIC [3, 5]: 512 µg/mL | MIC before combination ([3]; iso-sensitest broth): 512 µg/mL | MIC post combination ([3]; iso-sensitest broth): 64 µg/mL | optical density reading at 405 nm ([3]; iso-sensitest broth, HT00800059 1 μg/ml, mupirocin μg/ml: 1,0.5,0.25,0.125,0.0625,0.03125,0.015625,0): 1.49 | optical density reading at 405 nm ([3]; iso-sensitest broth, HT00800059 2 μg/ml, mupirocin μg/ml: 1,0.5,0.25,0.125,0.0625,0.03125,0.015625,0): 1.47 | optical density reading at 405 nm ([3]; iso-sensitest broth, HT00800059 4 μg/ml, mupirocin μg/ml: 1,0.5,0.25,0.125,0.0625,0.03125,0.015625,0): 1.46 | optical density reading at 405 nm ([3]; iso-sensitest broth, HT00800059 8 μg/ml, mupirocin μg/ml: 1,0.5,0.25,0.125,0.0625,0.03125,0.015625,0): 1.47 | optical density reading at 405 nm ([3]; iso-sensitest broth, HT00800059 16 μg/ml, mupirocin μg/ml: 1,0.5,0.25,0.125,0.0625,0.03125,0.015625,0): 1.52 | optical density reading at 405 nm ([3]; iso-sensitest broth, HT00800059 32 μg/ml, mupirocin μg/ml: 1,0.5,0.25,0.125,0.0625,0.03125,0.015625,0): 1.55 | optical density reading at 405 nm ([3]; iso-sensitest broth, HT00800059 64 μg/ml, mupirocin μg/ml: 1,0.5,0.25,0.125,0.0625,0.03125,0.015625,0): 1.34 | optical density reading at 405 nm ([3]; iso-sensitest broth, HT00800059 128 μg/ml, mupirocin μg/ml: 1,0.5,0.25,0.125,0.0625,0.03125,0.015625,0): 1.20 | optical density reading at 405 nm ([3]; iso-sensitest broth, HT00800059 256 μg/ml, mupirocin μg/ml: 1,0.5,0.25,0.125,0.0625,0.03125,0.015625,0): 1.09 | optical density reading at 405 nm ([3]; iso-sensitest broth, HT00800059 512 μg/ml, mupirocin μg/ml: 1,0.5,0.25,0.125,0.0625,0.03125,0.015625,0): 0.36 | optical density reading at 405 nm ([3]; iso-sensitest broth, HT00800059 1024 μg/ml, mupirocin μg/ml: 1,0.5,0.25,0.125,0.0625,0.03125,0.015625,0): 0.36 | MIC before combination ([3]; nutrient broth): 512 µg/mL | MIC post combination ([3]; nutrient broth): 64 µg/mL | optical density reading at 405 nm ([3]; nutrient broth, HT00800059 1 μg/ml, mupirocin μg/ml: 1,0.5,0.25,0.125,0.625 [sic],0.03125,0.15625 [sic],0): 0.858 | optical density reading at 405 nm ([3]; nutrient broth, HT00800059 2 μg/ml, mupirocin μg/ml: 1,0.5,0.25,0.125,0.625 [sic],0.03125,0.15625 [sic],0): 0.884 | optical density reading at 405 nm ([3]; nutrient broth, HT00800059 4 μg/ml, mupirocin μg/ml: 1,0.5,0.25,0.125,0.625 [sic],0.03125,0.15625 [sic],0): 0.885 | optical density reading at 405 nm ([3]; nutrient broth, HT00800059 8 μg/ml, mupirocin μg/ml: 1,0.5,0.25,0.125,0.625 [sic],0.03125,0.15625 [sic],0): 0.867 | optical density reading at 405 nm ([3]; nutrient broth, HT00800059 16 μg/ml, mupirocin μg/ml: 1,0.5,0.25,0.125,0.625 [sic],0.03125,0.15625 [sic],0): 0.840 | optical density reading at 405 nm ([3]; nutrient broth, HT00800059 32 μg/ml, mupirocin μg/ml: 1,0.5,0.25,0.125,0.625 [sic],0.03125,0.15625 [sic],0): 0.759 | optical density reading at 405 nm ([3]; nutrient broth, HT00800059 64 μg/ml, mupirocin μg/ml: 1,0.5,0.25,0.125,0.625 [sic],0.03125,0.15625 [sic],0): 0.721 | optical density reading at 405 nm ([3]; nutrient broth, HT00800059 128 μg/ml, mupirocin μg/ml: 1,0.5,0.25,0.125,0.625 [sic],0.03125,0.15625 [sic],0): 0.528 | optical density reading at 405 nm ([3]; nutrient broth, HT00800059 256 μg/ml, mupirocin μg/ml: 1,0.5,0.25,0.125,0.625 [sic],0.03125,0.15625 [sic],0): 0.524 | optical density reading at 405 nm ([3]; nutrient broth, HT00800059 512 μg/ml, mupirocin μg/ml: 1,0.5,0.25,0.125,0.625 [sic],0.03125,0.15625 [sic],0): 0.284 | optical density reading at 405 nm ([3]; nutrient broth, HT00800059 1024 μg/ml, mupirocin μg/ml: 1,0.5,0.25,0.125,0.625 [sic],0.03125,0.15625 [sic],0): 0.291 | HT00800059 MIC in combination ([3]; with mupirocin 0.125 μg/ml): 64 µg/mL | MIC [4, 5]: 512 µg/mL | MIC before combination ([4]; resistant strain 24 passages): 512 µg/mL | MIC post combination ([4]; resistant strain 24 passages): 64 µg/mL | HT00800059 MIC in combination ([4]; with mupirocin 8 μg/ml, 24 passages): 64 µg/mL
